According to the NIST ThermoML archive (doi:10.1021/acs.jced.8b00165):
± gives the expanded uncertainty stated by the source.

Settings: Crystal; DTA

Normal melting temperature: 117.00 ± 1.1 °C
Compound: CNC(=O)c1cc(Oc2ccc(N)cc2)ccn1 [4-(4-aminophenoxy)-N-methylpyridine-2-carboxamide]
